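Cultured in 96-well plates, cells were exposed to test compound for 48 hours across five concentrations. GI50: concentration for 50% inhibition of growth. At the TGI there is no net growth.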
Experiments:
Assay in all cases: inhibition of tumour cell growth, NCI panel, 48 h
SNB-19 CNS = test system: SNB-19 CNS
COLO 205 colon = test system: COLO 205 colon
UO-31 renal = test system: UO-31 renal
M14 melanoma = test system: M14 melanoma
MOLT-4 leukemia = test system: MOLT-4 leukemia
HCT-15 colon = test system: HCT-15 colon
HOP-62 NSCLC = test system: HOP-62 NSCLC
EKVX NSCLC = test system: EKVX NSCLC
SR leukemia = test system: SR leukemia
HCT-116 colon = test system: HCT-116 colon

Compound	TGI (SNB-19 CNS) [µM]	TGI (COLO 205 colon) [µM]	TGI (UO-31 renal) [µM]	TGI (M14 melanoma) [µM]	TGI (MOLT-4 leukemia) [µM]	TGI (HCT-15 colon) [µM]	TGI (HOP-62 NSCLC) [µM]	TGI (EKVX NSCLC) [µM]	TGI (SR leukemia) [µM]	GI50 (SNB-19 CNS) [µM]	GI50 (COLO 205 colon) [µM]	GI50 (M14 melanoma) [µM]	GI50 (HCT-15 colon) [µM]	GI50 (HOP-62 NSCLC) [µM]	GI50 (SR leukemia) [µM]	TGI (HCT-116 colon) [µM]	GI50 (HCT-116 colon) [µM]	GI50 (UO-31 renal) [µM]	GI50 (MOLT-4 leukemia) [µM]	GI50 (EKVX NSCLC) [µM]
CCOC(=O)c1oc2ccc(OC)c3c2c1CCC3	> 100	> 100	> 100	> 100	> 100	> 100	> 100	> 100	> 100	–	–	–	–	–	–	–	–	–	–	–
O=C(/C(=C/c1ccc([N+](=O)[O-])cc1)c1ccccc1)c1ccccc1	> 100	18.2	–	> 100	–	> 100	6.12	–	> 100	3.9	3.81	3.08	2.85	2.78	2.79	–	–	–	–	–
CCOC(=O)C1Oc2ccc([N+](=O)[O-])c3c2C1(O)CCC3 (stereo unspecified)	> 100	> 100	> 100	> 100	> 100	> 100	> 100	> 100	> 100	–	–	–	–	–	–	–	–	–	–	–
COc1ccc(N=c2ssc3c(=S)ssc23)cc1	–	–	–	48.6	26.9	52.5	> 100	–	20.1	–	–	–	–	–	–	> 100	–	–	–	–
CCOC(=O)C1=C(NC)OC/C1=N\NC(=O)c1ccccc1O	> 100	> 100	26.1	> 100	> 100	–	> 100	> 100	–	–	–	–	–	–	–	58.3	–	–	–	–
COc1cc2c(cc1OCCCCOc1cc3c(cc1OC)C(=O)N1CCC[C@H]1CN3)N=C[C@@H]1CCCN1C2=O	> 100	5.33	> 23.9	7.19	> 100	> 93.3	> 100	76.5	–	3.16	1.3	2.37	25.2	3.36	–	> 100	2.37	2.89	0.282	5.13
COc1cc(C(=O)C/C(CCC(=O)Nc2ccccc2[N+](=O)[O-])=N\NC(=O)CC#N)ccc1O	> 100	> 100	> 100	> 100	> 100	> 100	> 100	> 100	–	–	–	–	–	–	–	–	–	–	–	–
CCC1CN2CCc3cc(OC)c(OC)cc3C2CC1CC1c2cc(OC)c(OC)cc2CCN1C(=O)C1CCCN1C(=O)OCc1ccccc1 (stereo unspecified)	73.5	–	26	30.9	–	29.9	31.8	43.3	–	–	–	–	–	–	–	25.8	–	–	–	–
N/C(=N\N=C\c1ccc(-c2ccccc2)cc1)N[N+](=O)[O-]	> 100	> 42.1	> 100	> 100	> 100	> 100	> 100	–	> 100	–	3.38	1.65	2.03	2.64	0.692	> 100	1.97	6.22	5.76	–
CCCCNCC(=O)O[C@]1(CC)C(=O)OCc2c1cc1n(c2=O)Cc2cc3ccccc3nc2-1	> 61.1	17.5	1.71	7.23	0.232	> 100	–	> 100	0.0355	–	–	–	–	–	–	4.8	–	–	–	–
CC(CN1CCN(CCOCCO)CC1)CN1c2ccccc2Sc2ccc(Cl)cc21 (stereo unspecified)	21.8	3.18	16.4	3.46	6.54	3.76	13.4	–	16.5	8.14	1.69	1.85	1.85	3.52	3.58	4.35	2.03	3.3	2.49	–
CC(=O)OC1CCn2nnc(CO[Si](C)(C)C(C)(C)C)c21 (stereo unspecified)	> 100	> 100	> 100	> 100	> 100	> 100	–	> 100	> 100	–	–	–	–	–	–	> 100	–	–	–	–
Cc1ccc(C2=NOC3=c4ccccc4=CSC3=C2c2ccc([N+](=O)[O-])cc2)cc1	63.7	> 100	> 100	> 100	> 100	> 100	55.8	93.6	–	17.6	35.8	18.6	33.2	13.6	–	> 100	3.35	27.8	> 100	24.4
COc1ccc(C2=C(Cl)c3cc(OC)c(OC)cc3C2Cl)cc1OC (stereo unspecified)	32.1	32.5	31.3	34.9	15.4	55.6	36.6	50.5	–	–	–	–	–	–	–	30.3	–	–	–	–
COc1cc2c(c(OC)c1OC)-c1ncc3cc(OC)c(OC)c(OC)c3c1C2	94.2	50.3	> 100	> 100	–	83.5	66.5	66.7	–	28.9	25.8	50.7	23.4	35.4	–	> 100	33.5	20.2	–	23.1
O=[N+]([O-])c1cccc(-c2nc3sccn3c2-c2ccnc(NCCCNS(=O)(=O)c3cccc(F)c3)n2)c1	61.8	8.11	9.04	12	–	12.3	14.1	52.7	> 100	4.34	2.46	2.82	2.3	3.5	3.1	> 100	2.74	1.25	–	2.77
COc1cccc(C=Nc2cc(C)ccn2)c1O.COc1cccc(C=Nc2cc(C)ccn2)c1O.[Cu]	60.5	42.8	–	39.1	73.4	36	63.7	71.5	> 100	19.7	18.9	12.7	11.9	22.2	18.6	32.3	14.1	–	10.9	25.4
O=C1c2ccccc2-c2c1c1ccc([N+](=O)[O-])cc1c(=O)n2CCCBr	> 100	> 100	> 100	> 100	–	> 100	–	> 100	> 100	> 100	> 100	3.26	> 100	–	0.2	> 100	3.43	> 100	–	> 100

Compound	TGI (SNB-19 CNS) [µM]	TGI (COLO 205 colon) [µM]	TGI (UO-31 renal) [µM]	TGI (M14 melanoma) [µM]	TGI (MOLT-4 leukemia) [µM]	TGI (HCT-15 colon) [µM]	TGI (HOP-62 NSCLC) [µM]	TGI (EKVX NSCLC) [µM]	TGI (SR leukemia) [µM]	GI50 (SNB-19 CNS) [µM]	GI50 (COLO 205 colon) [µM]	GI50 (M14 melanoma) [µM]	GI50 (HCT-15 colon) [µM]	GI50 (HOP-62 NSCLC) [µM]	GI50 (SR leukemia) [µM]	TGI (HCT-116 colon) [µM]	GI50 (HCT-116 colon) [µM]	GI50 (UO-31 renal) [µM]	GI50 (MOLT-4 leukemia) [µM]	GI50 (EKVX NSCLC) [µM]
O=C(O)C1(P(=O)(O)O)CC1	> 100	> 100	> 100	76.4	> 100	> 100	> 100	> 100	–	–	–	–	–	–	–	> 100	–	–	–	–
C[Si](C)(C)OC1(C#N)C2C3CC4C2C(=O)C2C4C3C21 (stereo unspecified)	> 100	> 100	> 100	> 100	> 100	> 100	> 100	–	> 100	–	–	–	–	–	–	> 100	–	–	–	–
Nn1c(-c2ccccc2Cl)nc2ccccc2c1=O	> 100	> 100	> 100	> 100	> 100	> 100	> 100	> 100	–	–	–	–	–	–	–	> 100	–	–	–	–
Cc1c(C#N)c(=O)[nH]c(=O)n1CCN1CCN(C(=O)NCCCCCCNC(=O)N2CCN(CCn3c(C)c(C#N)c(=O)[nH]c3=O)CC2)CC1	> 100	> 100	–	> 100	> 100	> 100	> 100	> 100	–	–	–	–	–	–	–	> 100	–	–	–	–
O=S(=O)(c1ccccc1)C(CN1CCCCC1)S(=O)(=O)c1ccccc1	> 100	> 100	> 100	> 100	> 100	> 100	> 100	–	> 100	–	–	–	–	–	–	–	–	–	–	–
CC1=C(CCC(C)N(C)Cc2ccc(OCCCN3CCCC3)cc2)C(C)(C)CCC1 (stereo unspecified)	12	3.42	13.3	3.7	–	4.8	17.5	23.2	3.89	3.61	1.56	1.75	1.42	3.54	0.744	12.1	2.82	3.2	–	9.07
CCN1CCC(CCOC)(CN2c3ccccc3Sc3ccc(Cl)cc32)C1 (stereo unspecified)	7.31	3.29	3.63	3.62	–	4.26	3.13	5.91	> 100	2.65	1.71	1.92	2.04	1.67	4.01	3.32	1.86	1.66	–	2.04
c1ccc2c(c1)c(NCCCCN1CCCCC1)cc1c3ccccc3c(NCCCCN3CCCCC3)cc21	50.9	47.7	> 100	–	> 100	47.5	26	42	–	22.5	21.9	–	22.8	10.9	–	32.7	5.22	28.7	6.96	19.9
CCOC(=O)C(=O)Nc1c(CC)cccc1C(C)C	> 100	> 100	> 100	> 100	–	> 100	> 100	> 100	–	–	–	–	–	–	–	> 100	–	–	–	–
Cc1ccc(-c2cc(-c3ccc(C)cc3)nc(NCCNc3ccnc4cc(Cl)ccc34)n2)cc1	3.76	3.48	2.85	3.65	–	3.16	3.8	3.52	> 100	1.89	1.69	1.78	1.55	1.89	0.623	3.44	1.6	1.37	–	1.69
C/C(=N\Nc1ccc2ccccc2n1)c1ccccn1	14.3	2.7	0.676	1.33	0.404	5.72	11	–	2.38	0.198	< 0.0195	0.0504	–	0.09	< 0.0335	3.03	< 0.0472	< 0.0395	< 0.0394	–
O=C1OC(CCCl)(c2ccccc2)CC1CN1CCOCC1 (stereo unspecified)	–	35.4	> 100	57.1	48	55.5	> 100	40.5	–	–	–	–	–	–	–	–	–	–	–	–
COc1ccc(OC)c(NC(=O)CCC/C(CC(=O)c2ccc(O)c(OC)c2)=N\NC(=O)C[N+](C)(C)C)c1	> 100	> 100	> 100	> 100	> 100	> 100	> 100	> 100	> 100	–	–	–	–	–	–	–	–	–	–	–
Cc1cc(N(CCC#N)CCC#N)ccc1/C=C/C(=O)Nc1cccc(Cl)c1	> 100	> 100	> 100	> 100	> 100	> 100	> 100	> 100	–	–	–	–	–	–	–	> 100	–	–	–	–
CCOC(=O)C(C)(c1cn(C)c2ccccc12)c1cn(C)c2ccccc12	–	–	> 100	> 100	> 100	> 100	> 100	> 100	–	–	–	–	–	–	–	> 100	–	–	–	–
Cn1c2c(cc(S(=O)(=O)c3ccccc3)c1=O)CCc1c-2cnn1-c1ccc(Cl)cc1	4.33	> 100	6.09	–	> 100	> 100	7.61	31	–	2.01	> 100	–	3.02	2.93	–	> 100	4.14	1.87	> 100	3.62
Clc1cc(Cl)c(OCC#CI)cc1Cl	43.9	3.06	–	5.41	6.11	23.5	14.2	30.2	–	18.3	1.57	2.13	5.02	4.08	–	3.47	1.75	–	2.05	14
CS(=O)(=O)Oc1cccc(/C=N/N=C(\N)NO)c1	> 100	> 100	> 100	> 100	–	> 100	> 100	> 100	> 100	–	–	–	–	–	–	> 100	–	–	–	–

From PubChem BioAssay (NCI)
